Experimental data as given in patent EP3696177A1, “HETEROCYCLIC COMPOUNDS FOR THE CONTROL OF INVERTEBRATE PESTS” (BASF SE, priority 2019, dated 2020).

Legend:
Assay type in all cases: in vivo
Aedes aegypti = experiment: whole plant or invertebrate; conditions: 48 h, A. aegypti larvae, incubated 2 days, read-out: mortality in comparison with untreated controls (larval mortality)
dichromothrips corbetti = experiment: Orchid thrips floral-immersion test; conditions: 72 h, read-out: mortality in comparison with untreated controls
Anthonomus grandis = experiment: Boll weevil (Anthonomus grandis) insect diet microtiter plate test; conditions: 120 h, read-out: mortality in comparison with untreated controls (egg and larval mortality)
Aphis craccivora = experiment: Cowpea aphid (Aphis craccivora) spray test on potted cowpea plants; conditions: aphids of various stages, after 72 hours, read-out: mortality in comparison with untreated controls
Procedure: The active compound is dissolved at the desired concentration in a mixture of 1:1 (vol: vol) distilled water: acetone. Surfactant (Kinetic) is added at a rate of 0.01% (vol/vol). The test solution is prepared at the day of use.
Potted cowpea plants are colonized with approximately 30 - 50 aphids of various stages by man-ually transferring aphid-infested leaf clippings 24 hours before application. Plants are sprayed with the test solutions using a DeVilbiss® hand atomizer at 20- 30 psi (≈ 1.38 to 2.07 bar) after the pest population has been checked. Treated plants are maintained on light carts at about 25- 26°C. Estimate percent mortality is assessed after 72 hours.

Caenorhabditis elegans = Caenorhabditis elegans liquid diet microtiter plate test; conditions: 96 h, read-out: mortality in comparison with untreated controls (nematode motility (mortality))
Heliothis virescens = experiment: Tobacco budworm (Heliothis virescens) insect diet microtiter plate test; conditions: 120 h, read-out: mortality in comparison with untreated controls (egg and larval mortality)
Megoura viciae = experiment: Vetch aphid (Megoura viciae) broad bean leaf disk test; conditions: foliar, 120 h, read-out: mortality in comparison with untreated controls
Myzus persicae = experiment: Green peach aphid (Myzus persicae) artificial diet/membrane systemic test; conditions: 72 h, read-out: mortality in comparison with untreated controls
Nephotettix virescens = experiment: Rice green leafhopper (Nephotettix virescens) spray test on rice seedlings; conditions: adults, after 72 hours, read-out: mortality in comparison with untreated controls
Procedure: Four to five-week old rice seedlings with cut upper leaf portion are cleaned and washed 24 hours before spraying. The active compounds are formulated in 1:1 acetone:water (vol:vol), and 0.01% vol/vol surfactant (Kinetic) is added. Potted rice seedlings are sprayed with 5-6 ml test solution, air dried, covered with Mylar cages and inoculated with 10 adults. Treated rice plants are kept at about 28-29°C and relative humidity of about 50-60%. Percent mortality is recorded after 72 hours.

Nezara viridula = experiment: Green soldier stink bug (Nezara viridula) soybean pod spray test; conditions: 120 h, late 3rd instar N. viridula, after 5 days, read-out: mortality in comparison with untreated controls
Procedure: The active compound is dissolved at the desired concentration in a mixture of 1:1 (vol:vol) distilled water: aceteone. Surfactant (Kinetic) is added at a rate of 0.01% (vol/vol).The test solution is prepared at the day of use.
Soybean pods are placed in 90 x 50 mm glass Petri dishes lined with moistened filter paper and inoculated with ten late 3rd instar N. viridula. Using a hand atomizer, an approximately 2 ml solution is sprayed into each Petri dish. Treated set-up is kept at about 25-26°C and relative humidity of about 65-70%. Percent mortality is recorded after 5 days.

Plutella xylostella = experiment: Diamond back moth (Plutella xylostella) cabbage leaf disc dip test; conditions: foliar, 72 h, read-out: mortality in comparison with untreated controls
Tetranychus kanzawai = experiment: Red spider mite (Tetranychus kanzawai) spray test on cowpea beans; conditions: topical, 72 h, read-out: mortality in comparison with untreated controls

CCN1C(=O)SC(NC(=O)c2ccc(C3=NOC(c4cc(Cl)cc(Cl)c4)(C(F)(F)F)C3)cc2Cl)C1=O (stereo not drawn) [Compound I-1-2]
> 75%: mortality at 2500 ppm (Aedes aegypti) | mortality at 300 ppm (dichromothrips corbetti) | mortality at 2500 ppm (Anthonomus grandis) | mortality at 300 ppm (Aphis craccivora) | mortality at 2500 ppm (Caenorhabditis elegans) | mortality at 2500 ppm (Heliothis virescens) | mortality at 2500 ppm (Megoura viciae) | mortality at 2500 ppm (Myzus persicae) | mortality at 300 ppm (Nephotettix virescens) | mortality at 300 ppm (Nezara viridula) | mortality at 300 ppm (Plutella xylostella) | mortality at 300 ppm (Tetranychus kanzawai)

CN1C(=O)SC(NC(=O)c2ccc(C3=NOC(c4cc(Cl)c(F)c(Cl)c4)(C(F)(F)F)C3)c3c2CCC3)C1=O (stereo not drawn) [Compound I-1-9]
> 75%: mortality at 2500 ppm (Aedes aegypti) | mortality at 300 ppm (dichromothrips corbetti) | mortality at 2500 ppm (Anthonomus grandis) | mortality at 300 ppm (Aphis craccivora) | mortality at 2500 ppm (Caenorhabditis elegans) | mortality at 2500 ppm (Heliothis virescens) | mortality at 2500 ppm (Megoura viciae) | mortality at 2500 ppm (Myzus persicae) | mortality at 300 ppm (Nephotettix virescens) | mortality at 300 ppm (Nezara viridula) | mortality at 300 ppm (Plutella xylostella) | mortality at 300 ppm (Tetranychus kanzawai)

CCN1C(=O)SC(NC(=O)c2ccc(C3=NOC(c4cc(Cl)c(F)c(Cl)c4)(C(F)(F)F)C3)cc2Cl)C1=O (stereo not drawn) [Compound I-1-7]
> 75%: mortality at 2500 ppm (Aedes aegypti) | mortality at 300 ppm (dichromothrips corbetti) | mortality at 2500 ppm (Anthonomus grandis) | mortality at 300 ppm (Aphis craccivora) | mortality at 2500 ppm (Caenorhabditis elegans) | mortality at 2500 ppm (Heliothis virescens) | mortality at 2500 ppm (Megoura viciae) | mortality at 2500 ppm (Myzus persicae) | mortality at 300 ppm (Nephotettix virescens) | mortality at 300 ppm (Nezara viridula) | mortality at 300 ppm (Plutella xylostella) | mortality at 300 ppm (Tetranychus kanzawai)

CN1C(=O)SC(NC(=O)c2ccc(C3=NOC(c4cc(Cl)cc(Cl)c4)(C(F)(F)F)C3)cc2Cl)C1=O (stereo not drawn) [Compound I-1-1]
> 75%: mortality at 2500 ppm (Aedes aegypti) | mortality at 300 ppm (dichromothrips corbetti) | mortality at 2500 ppm (Anthonomus grandis) | mortality at 300 ppm (Aphis craccivora) | mortality at 2500 ppm (Caenorhabditis elegans) | mortality at 2500 ppm (Heliothis virescens) | mortality at 2500 ppm (Megoura viciae) | mortality at 2500 ppm (Myzus persicae) | mortality at 300 ppm (Nephotettix virescens) | mortality at 300 ppm (Nezara viridula) | mortality at 300 ppm (Plutella xylostella) | mortality at 300 ppm (Tetranychus kanzawai)
